Reference: ChEMBL document CHEMBL1201862, “PubChem BioAssay data set” (2004)
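Interpolation was linear, between the two tested concentrations surrounding the appropriate level; five concentrations were tested over 48 hours in 96-well plates. GI50 = concentration required for 50% inhibition of growth.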 Active and inactive are the calls of the source. Rule as the data show it: active = GI50 up to about 1.1 µM and inactive = higher.

What was measured:
Assay in all cases: growth of human tumour cells (NCI), 48 h
SNB-19 = test system: SNB-19
SW-620 = test system: SW-620
T47D = test system: T47D
OVCAR-3 = test system: OVCAR-3
MDA-N = test system: MDA-N
SNB-75 = test system: SNB-75
OVCAR-8 = test system: OVCAR-8
HCT-116 = test system: HCT-116
HL-60 = test system: HL-60
CAKI-1 = test system: CAKI-1
NCI-H460 = test system: NCI-H460
CCRF-CEM = test system: CCRF-CEM
RXF 393 = test system: RXF 393
UO-31 = test system: UO-31
ACHN = test system: ACHN
SN12C = test system: SN12C
PC-3 = test system: PC-3
Hs-578T = test system: Hs-578T
KM-20L2 = test system: KM-20L2
M19-MEL = test system: M19-MEL

Measured: GI50

CC12CCC(=O)C=C1CCC1C2CCC2(C)C(C(=O)Cn3cnc4c(=S)nc[nH]c43)CCC12 (stereo unspecified)
inactive: SNB-19 23.6 µM | SW-620 76.2 µM | T47D 9.23 µM | OVCAR-3 18.2 µM | MDA-N 39.2 µM | SNB-75 15.5 µM | OVCAR-8 27.5 µM | HCT-116 35.9 µM | HL-60 33.3 µM | CAKI-1 34 µM | NCI-H460 28.8 µM | CCRF-CEM 25.5 µM | RXF 393 17.6 µM | UO-31 44.8 µM | ACHN 40 µM | SN12C 67.8 µM | PC-3 63.7 µM | Hs-578T 52 µM

CS(=O)(=O)N1CC(CCl)c2ccc(NO)cc21 (stereo unspecified)
inactive: SNB-19 22.5 µM | SW-620 12.6 µM | T47D 21.9 µM | OVCAR-3 11.7 µM | MDA-N 16.9 µM | SNB-75 1.77 µM | OVCAR-8 12.9 µM | HCT-116 14.7 µM | HL-60 1.96 µM | CAKI-1 12.6 µM | NCI-H460 14.9 µM | CCRF-CEM 1.83 µM | RXF 393 3.37 µM | UO-31 10.3 µM | ACHN 7.94 µM | SN12C 15.3 µM | PC-3 12 µM | Hs-578T 23.1 µM

CC(=O)OC1=C2CC[C@@H]3C(CC[C@@]4(C)C3CC[C@@H]4OC(C)=O)[C@@]2(C)CC(C#N)C1=O (stereo partly specified)
inactive: SNB-19 25.2 µM | SW-620 35.7 µM | OVCAR-3 21.2 µM | SNB-75 14.5 µM | OVCAR-8 30.9 µM | HCT-116 27.6 µM | HL-60 16 µM | NCI-H460 24.4 µM | CCRF-CEM 20.2 µM | RXF 393 23.4 µM | UO-31 7.69 µM | KM-20L2 27.7 µM | ACHN 20.8 µM | SN12C 28.6 µM

O=C1c2cnccc2Cc2cccc3c2N1c1ccccc1S3
inactive: SNB-19 30.9 µM | SW-620 27.8 µM | OVCAR-3 17.7 µM | SNB-75 12.6 µM | HCT-116 19 µM | HL-60 21.1 µM | CAKI-1 2.88 µM | CCRF-CEM 27.5 µM | RXF 393 21.6 µM | KM-20L2 17.6 µM | ACHN 19 µM | SN12C 29 µM | M19-MEL 28.9 µM

Cc1ccc(NC(=O)CC(=O)N2N=C(N(CCC#N)c3cccc(C)c3)CC2c2ccccc2)cc1 (stereo unspecified)
inactive: SNB-19 > 100 µM | SW-620 > 100 µM | OVCAR-3 > 100 µM | SNB-75 > 100 µM | OVCAR-8 > 100 µM | HCT-116 > 100 µM | HL-60 > 100 µM | NCI-H460 > 100 µM | CCRF-CEM > 100 µM | RXF 393 > 100 µM | UO-31 > 100 µM | KM-20L2 > 100 µM | ACHN > 100 µM | SN12C > 100 µM | M19-MEL > 100 µM

Cn1c(=O)c2c(nc3n(CC(O)CCl)c(=O)ccn23)n(C)c1=O (stereo unspecified)
inactive: SNB-19 60 µM | SW-620 46.8 µM | T47D 35.7 µM | OVCAR-3 77.1 µM | MDA-N 35.2 µM | SNB-75 29.1 µM | OVCAR-8 18.7 µM | HCT-116 18.2 µM | HL-60 15.5 µM | CAKI-1 17 µM | NCI-H460 29.9 µM | CCRF-CEM 5.19 µM | RXF 393 > 100 µM | UO-31 37.5 µM | ACHN 15.4 µM | SN12C 18.3 µM | PC-3 > 100 µM | Hs-578T 41.4 µM

Cc1ccc(NC(=O)C(=O)C(C#N)c2nc(-c3ccc(-c4ccccc4)cc3)cs2)c(C)c1 (stereo unspecified)
inactive: SNB-19 > 100 µM | SW-620 17.4 µM | OVCAR-3 > 100 µM | SNB-75 > 100 µM | OVCAR-8 > 100 µM | HCT-116 > 100 µM | CAKI-1 > 100 µM | NCI-H460 > 100 µM | RXF 393 > 100 µM | UO-31 > 100 µM | KM-20L2 > 100 µM | ACHN > 100 µM | SN12C > 100 µM | M19-MEL > 100 µM

O=C1NC(=O)C23C(=O)NC(=O)C12C1C=CC3CC1 (stereo unspecified)
inactive: SNB-19 > 10 µM | SW-620 > 10 µM | T47D > 10 µM | OVCAR-3 > 10 µM | MDA-N > 10 µM | SNB-75 > 10 µM | OVCAR-8 > 10 µM | HCT-116 > 10 µM | HL-60 > 10 µM | CAKI-1 > 10 µM | NCI-H460 > 10 µM | CCRF-CEM > 10 µM | RXF 393 > 10 µM | UO-31 > 10 µM | ACHN > 10 µM | SN12C > 10 µM | PC-3 > 10 µM | Hs-578T > 10 µM

Cc1cc2nc3[nH]c4c(Cl)cc(Cl)cc4c3nc2cc1C
inactive: SNB-19 > 100 µM | SW-620 > 100 µM | T47D > 100 µM | OVCAR-3 > 100 µM | MDA-N > 100 µM | SNB-75 9.12 µM | OVCAR-8 > 100 µM | HCT-116 > 100 µM | HL-60 > 100 µM | CAKI-1 > 100 µM | NCI-H460 > 100 µM | CCRF-CEM 72.3 µM | RXF 393 31.6 µM | UO-31 > 100 µM | ACHN > 100 µM | SN12C > 100 µM | PC-3 > 100 µM | Hs-578T > 100 µM
